Results on two compounds are retold here after ChEMBL document CHEMBL5550090, “Synthesis and biological evaluation of 1H-pyrrolo[3,2-g]isoquinolines” (Bioorg Med Chem, 2024).

As usually defined, the IC50 is the concentration needed to halve the response being measured. By EC50 is commonly meant the concentration giving half of the maximal effect. Lower therefore signals higher potency in that assay.

Structures are written as SMILES.

Assay [1] addresses T1, Serine/threonine-protein kinase haspin (Homo sapiens, UniProt Q8TF76).
T1 sequence (Q8TF76 whole entry): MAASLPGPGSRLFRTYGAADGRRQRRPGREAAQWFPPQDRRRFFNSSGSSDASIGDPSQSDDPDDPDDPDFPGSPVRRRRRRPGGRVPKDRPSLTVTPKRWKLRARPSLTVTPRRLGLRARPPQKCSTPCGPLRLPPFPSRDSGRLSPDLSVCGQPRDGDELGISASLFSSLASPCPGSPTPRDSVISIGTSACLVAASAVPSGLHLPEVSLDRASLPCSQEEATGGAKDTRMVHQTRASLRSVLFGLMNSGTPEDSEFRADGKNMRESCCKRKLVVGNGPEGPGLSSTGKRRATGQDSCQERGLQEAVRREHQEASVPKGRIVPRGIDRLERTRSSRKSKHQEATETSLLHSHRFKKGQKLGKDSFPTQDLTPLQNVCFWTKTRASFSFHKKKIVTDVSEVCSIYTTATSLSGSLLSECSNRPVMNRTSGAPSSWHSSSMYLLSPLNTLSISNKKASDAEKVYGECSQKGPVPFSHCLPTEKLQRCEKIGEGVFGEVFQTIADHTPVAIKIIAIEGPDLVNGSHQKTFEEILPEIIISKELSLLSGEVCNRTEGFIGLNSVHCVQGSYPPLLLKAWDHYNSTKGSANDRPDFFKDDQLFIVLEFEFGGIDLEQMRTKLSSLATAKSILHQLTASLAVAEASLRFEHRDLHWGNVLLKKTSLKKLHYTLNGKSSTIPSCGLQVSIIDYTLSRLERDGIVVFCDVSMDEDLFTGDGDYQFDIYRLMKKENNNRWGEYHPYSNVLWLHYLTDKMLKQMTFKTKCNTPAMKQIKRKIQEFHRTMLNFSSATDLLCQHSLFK
The experiment in a line: Inhibition of recombinant human Haspin kinase domain (470 to 798 residues) expressed in bacteria using histone H3 (1 to 21) peptide as substrate incubated for 30 mins in presence of ATP by ADP-Glo kinase assay.

The target in assay [2] is Dual specificity protein kinase CLK1 (Mus musculus) (UniProt P22518). The experiment in a line: Inhibition of recombinant mouse CLK1 expressed in bacteria assessed as enzyme residual activity using GRSRSRSRSRSR as substrate at 10 uM incubated for 30 mins in presence of ATP by ADP-Glo kinase assay. In general terms: ADP-Glo turns the ADP formed in a reaction into a luminescent signal.

For assay [3] the target is unchanged. The experiment in a line: Inhibition of recombinant mouse CLK1 expressed in bacteria assessed as enzyme residual activity using GRSRSRSRSRSR as substrate at 1 uM incubated for 30 mins in presence of ATP by ADP-Glo kinase assay.
Assay [4] concerns the target Dual specificity protein kinase CLK1 (Mus musculus, UniProt P22518). The experiment in a line: Inhibition of recombinant mouse CLK1 expressed in bacteria using GRSRSRSRSRSR as substrate incubated for 30 mins in presence of ATP by ADP-Glo kinase assay.
The target of assay [5] is Dual specificity tyrosine-phosphorylation-regulated kinase 1A (Rattus norvegicus) (UniProt Q63470). Put plainly: Inhibition of recombinant rat DYRK1A kinase domain (1 to 499 residues) expressed in bacteria assessed as enzyme residual activity using KKISGRLSPIMTEQ as substrate at 10 uM incubated for 30 mins in presence of ATP by ADP-Glo kinase assay.
For assay [6] the target is unchanged. Put plainly: Inhibition of recombinant rat DYRK1A kinase domain (1 to 499 residues) expressed in bacteria assessed as enzyme residual activity using KKISGRLSPIMTEQ as substrate at 1 uM incubated for 30 mins in presence of ATP by ADP-Glo kinase assay.
Assay [7] concerns the target Dual specificity tyrosine-phosphorylation-regulated kinase 1A (Rattus norvegicus, UniProt Q63470). The experiment in a line: Inhibition of recombinant rat DYRK1A kinase domain (1 to 499 residues) expressed in bacteria using KKISGRLSPIMTEQ as substrate incubated for 30 mins in presence of ATP by ADP-Glo kinase assay.
In assay [8] the target is T2, CDK9/cyclin T1 (Homo sapiens) (UniProt O60563+P50750). The experiment in a line: Inhibition of human recombinant CDK9/cyclin T expressed in baculovirus-infected Sf9 cells assessed as enzyme residual activity using YSPTSPSYSPTSPSYSPTSPSKKKK as substrate at 10 uM incubated for 30 mins in presence of ATP by ADP-Glo kinase assay.
The target in assay [9] is T2, CDK9/cyclin T1 (Homo sapiens). Put plainly: Inhibition of human recombinant CDK9/cyclin T expressed in baculovirus-infected Sf9 cells assessed as enzyme residual activity using YSPTSPSYSPTSPSYSPTSPSKKKK as substrate at 1 uM incubated for 30 mins in presence of ATP by ADP-Glo kinase assay.
Assay [10] concerns the target Glycogen synthase kinase-3 beta (Homo sapiens) (UniProt P49841). The experiment in a line: Inhibition of human recombinant GSK-3 beta expressed in baculovirus-infected Sf9 cells assessed as enzyme residual activity using YRRAAVPPSPSLSRHSSPHQSpEDEEE as substrate at 10 uM incubated for 30 mins in presence of ATP by ADP-Glo kinase assay.
Assay [11] shares this target. Put plainly: Inhibition of human recombinant GSK-3 beta expressed in baculovirus-infected Sf9 cells assessed as enzyme residual activity using YRRAAVPPSPSLSRHSSPHQSpEDEEE as substrate at 1 uM incubated for 30 mins in presence of ATP by ADP-Glo kinase assay.
For assay [12], the target named is Casein kinase I isoform epsilon (Homo sapiens) (UniProt P49674). Put plainly: Inhibition of human recombinant CK1 epsilon expressed in baculovirus-infected Sf9 cells assessed as enzyme residual activity using RRKHAAIGSpAYSITA as substrate at 10 uM incubated for 30 mins in presence of ATP by ADP-Glo kinase assay.
Assay [13] shares this target. The experiment in a line: Inhibition of human recombinant CK1 epsilon expressed in baculovirus-infected Sf9 cells assessed as enzyme residual activity using RRKHAAIGSpAYSITA as substrate at 1 uM incubated for 30 mins in presence of ATP by ADP-Glo kinase assay.
Assay [14] has as its target T3, Cyclin-dependent kinase 5/CDK5 activator 1 (Homo sapiens) (UniProt Q00535+Q15078). The experiment in a line: Inhibition of human recombinant CDK5/p25 expressed in bacteria assessed as enzyme residual activity using histone H1 as substrate at 10 uM incubated for 30 mins in presence of ATP by ADP-Glo kinase assay.
Assay [15] concerns the target T3, Cyclin-dependent kinase 5/CDK5 activator 1 (Homo sapiens). The experiment in a line: Inhibition of human recombinant CDK5/p25 expressed in bacteria assessed as enzyme residual activity using histone H1 as substrate at 1 uM incubated for 30 mins in presence of ATP by ADP-Glo kinase assay.
For assay [16], the target named is T4, Serine/threonine-protein kinase pim-1 (Homo sapiens, UniProt P11309). The experiment in a line: Inhibition of human recombinant PIM-1 expressed in bacteria assessed as enzyme residual activity using histone H1 as substrate at 10 uM incubated for 30 mins in presence of ATP by ADP-Glo kinase assay.
Target sequence in this assay (P11309 whole entry, looked up): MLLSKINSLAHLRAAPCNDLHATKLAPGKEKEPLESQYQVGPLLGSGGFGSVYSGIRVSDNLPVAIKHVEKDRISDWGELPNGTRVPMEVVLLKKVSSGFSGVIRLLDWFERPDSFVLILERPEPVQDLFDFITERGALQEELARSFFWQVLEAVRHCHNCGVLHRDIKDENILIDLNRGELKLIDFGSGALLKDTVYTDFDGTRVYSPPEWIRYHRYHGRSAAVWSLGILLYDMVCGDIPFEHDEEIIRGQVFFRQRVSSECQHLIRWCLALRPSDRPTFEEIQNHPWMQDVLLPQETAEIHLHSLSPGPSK
Assay [17] addresses T4, Serine/threonine-protein kinase pim-1. The experiment in a line: Inhibition of human recombinant PIM-1 expressed in bacteria assessed as enzyme residual activity using histone H1 as substrate at 1 uM incubated for 30 mins in presence of ATP by ADP-Glo kinase assay.
Target sequence in this assay (P11309 whole entry, looked up): as above
Assay [18] has the same target. Put plainly: Inhibition of human recombinant PIM-1 expressed in bacteria using histone H1 as substrate incubated for 30 mins in presence of ATP by ADP-Glo kinase assay.
Target sequence in this assay (P11309 whole entry): as the sequence (P11309 whole entry, looked up) above
The subject of assay [19] is U2OS. Put plainly: Induction of cell cycle arrest in human U2OS cells assessed as proportion of cells at G1 phase at 2.5 uM incubated for 24 hrs by flow cytometry (reference value: 45%). It counts as functional. A general note: Flow cytometry measures light scatter and fluorescence of single cells or particles in a stream.
The subject of assay [20] is U2OS. Put plainly: Induction of cell cycle arrest in human U2OS cells assessed as proportion of cells at S phase at 2.5 uM incubated for 24 hrs by flow cytometry (reference value: 39%). It counts as functional.
Assay [21] deals with U2OS. The experiment in a line: Induction of cell cycle arrest in human U2OS cells assessed as proportion of cells at G2/M phase at 2.5 uM incubated for 24 hrs by flow cytometry (reference value: 16%). It is filed as functional.
Assay [22] has as its system U2OS. Put plainly: Induction of cell cycle arrest in human U2OS cells assessed as proportion of cells at G1 phase at 5 uM incubated for 24 hrs by flow cytometry (reference value: 45%). It counts as functional.
Assay [23] relates to U2OS. The experiment in a line: Induction of cell cycle arrest in human U2OS cells assessed as proportion of cells at S phase at 5 uM incubated for 24 hrs by flow cytometry (reference value: 39%). It counts as functional.
In assay [24] the test system is U2OS. The experiment in a line: Induction of cell cycle arrest in human U2OS cells assessed as proportion of cells at G2/M phase at 5 uM incubated for 24 hrs by flow cytometry (reference value: 16%). It is filed as functional.
For assay [25], the system named is TERT-RPE1. Put plainly: cells. The settings on record: Homo sapiens, RPE-1, 48 h.
Description: Cytotoxicity against human TERT-RPE1 cells assessed as reduction in cell viability incubated for 48 hrs by MTS assay
In assay [26] the test system is HBL-100. Put plainly: cells. The settings on record: Homo sapiens, HBL-100, 48 h.
Description: Antiproliferative activity against human HBL-100 cells assessed as reduction in cell viability incubated for 48 hrs by MTS assay
For assay [27], the system named is HCT-116. The experiment in a line: cells. Conditions: Homo sapiens, HCT-116, 48 h.
Description: Antiproliferative activity against human HCT-116 cells assessed as reduction in cell viability incubated for 48 hrs by MTS assay
In assay [28] the test system is SH-SY5Y. The experiment in a line: cells. The settings on record: Homo sapiens, 48 h.
Description: Antiproliferative activity against human SH-SY5Y cells assessed as reduction in cell viability incubated for 48 hrs by MTS assay
The test system of assay [29] is U2OS. The experiment in a line: cells. Conditions: Homo sapiens, 48 h.
Description: Antiproliferative activity against human U2OS cells assessed as reduction in cell viability incubated for 48 hrs by MTS assay
The subject of assay [30] is U2OS. Put plainly: Induction of cell cycle arrest in human U2OS cells assessed as proportion of cells at G1 phase at 0.5 uM incubated for 24 hrs by flow cytometry (reference value: 45%). It is filed as functional.
For assay [31], the system named is U2OS. The experiment in a line: Induction of cell cycle arrest in human U2OS cells assessed as proportion of cells at S phase at 0.5 uM incubated for 24 hrs by flow cytometry (reference value: 39%). It is filed as functional.
The subject of assay [32] is U2OS. Put plainly: Induction of cell cycle arrest in human U2OS cells assessed as proportion of cells at G2/M phase at 0.5 uM incubated for 24 hrs by flow cytometry (reference value: 16%). It is filed as functional.

Dual specificity protein kinase CLK1 (Mus musculus), sequence (P22518 whole entry, looked up): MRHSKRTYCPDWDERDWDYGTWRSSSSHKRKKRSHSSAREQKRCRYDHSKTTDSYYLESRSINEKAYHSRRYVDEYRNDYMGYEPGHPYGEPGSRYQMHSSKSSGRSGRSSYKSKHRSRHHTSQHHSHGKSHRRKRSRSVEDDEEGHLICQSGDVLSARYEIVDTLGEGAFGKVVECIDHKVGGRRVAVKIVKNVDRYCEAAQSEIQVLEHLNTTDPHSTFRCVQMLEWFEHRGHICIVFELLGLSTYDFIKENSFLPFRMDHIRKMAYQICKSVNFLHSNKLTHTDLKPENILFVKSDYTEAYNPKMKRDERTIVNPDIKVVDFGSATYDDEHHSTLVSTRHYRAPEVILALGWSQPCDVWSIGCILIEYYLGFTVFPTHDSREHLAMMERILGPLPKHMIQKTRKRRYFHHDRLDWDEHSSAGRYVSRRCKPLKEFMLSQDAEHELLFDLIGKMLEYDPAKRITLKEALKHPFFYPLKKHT
Glycogen synthase kinase-3 beta (Homo sapiens), sequence (P49841 whole entry, looked up): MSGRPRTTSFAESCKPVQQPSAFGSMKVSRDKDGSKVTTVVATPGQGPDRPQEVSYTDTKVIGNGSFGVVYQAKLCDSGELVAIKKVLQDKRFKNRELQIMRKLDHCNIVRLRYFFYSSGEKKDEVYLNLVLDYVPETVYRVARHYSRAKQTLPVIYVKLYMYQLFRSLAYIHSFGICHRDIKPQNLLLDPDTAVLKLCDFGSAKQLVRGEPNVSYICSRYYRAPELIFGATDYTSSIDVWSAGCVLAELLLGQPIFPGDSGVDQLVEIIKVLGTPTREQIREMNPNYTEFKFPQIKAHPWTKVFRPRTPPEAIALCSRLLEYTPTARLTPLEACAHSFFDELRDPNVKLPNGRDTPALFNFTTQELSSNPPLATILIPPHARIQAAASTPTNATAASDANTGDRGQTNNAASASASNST
Casein kinase I isoform epsilon (Homo sapiens), sequence (P49674 whole entry, looked up, canonical isoform): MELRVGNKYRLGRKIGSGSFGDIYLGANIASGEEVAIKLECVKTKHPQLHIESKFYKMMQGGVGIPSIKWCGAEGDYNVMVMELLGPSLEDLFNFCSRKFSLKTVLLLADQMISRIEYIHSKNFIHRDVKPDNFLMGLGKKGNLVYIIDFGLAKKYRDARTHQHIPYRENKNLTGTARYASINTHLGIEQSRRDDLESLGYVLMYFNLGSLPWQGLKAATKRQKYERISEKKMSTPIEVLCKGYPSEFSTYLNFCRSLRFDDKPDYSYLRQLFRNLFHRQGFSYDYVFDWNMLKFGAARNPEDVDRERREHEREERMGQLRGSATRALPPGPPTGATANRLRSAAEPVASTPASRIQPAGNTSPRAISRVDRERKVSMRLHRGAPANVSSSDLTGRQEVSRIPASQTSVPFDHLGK
T3 sequence (Q00535 whole entry): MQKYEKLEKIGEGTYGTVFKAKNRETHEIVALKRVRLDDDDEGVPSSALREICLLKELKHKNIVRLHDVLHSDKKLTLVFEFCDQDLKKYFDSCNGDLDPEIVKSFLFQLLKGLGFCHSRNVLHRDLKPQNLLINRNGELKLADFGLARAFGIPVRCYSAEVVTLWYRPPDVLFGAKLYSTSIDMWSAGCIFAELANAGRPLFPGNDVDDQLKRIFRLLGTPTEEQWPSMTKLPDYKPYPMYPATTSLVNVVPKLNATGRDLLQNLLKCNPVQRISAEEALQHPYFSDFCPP
T3 sequence (Q15078 99-307 partner limits assumed): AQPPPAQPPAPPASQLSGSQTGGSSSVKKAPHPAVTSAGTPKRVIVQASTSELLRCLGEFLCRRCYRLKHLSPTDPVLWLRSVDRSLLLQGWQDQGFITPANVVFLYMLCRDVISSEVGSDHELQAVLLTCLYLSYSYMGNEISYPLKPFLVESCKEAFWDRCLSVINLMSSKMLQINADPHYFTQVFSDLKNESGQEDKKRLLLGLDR
Dual specificity protein kinase CLK1, sequence (P22518 whole entry, the tested form may be a part): as the sequence (P22518 whole entry, looked up) above

With `c1cc(-c2c[nH]c3cc4cnccc4cc23)ccn1`, the IC50 worked out at 76 nM in assay [1], 693 nM in [4], 513 nM in [7] and 479 nM in assay [18]. Moreover, the Activity turned out to be 17% in assay [2]; 46% in assay [3]; 11% in [5]; 46% in assay [6]; 38% in assay [8]; 78% in assay [9]. For the same compound, the Activity is 54% in assay [10]; 92% in assay [11]; 25% in assay [12]; 61% in [13]; 10% in assay [14]; 79% in [15]. For the same compound, the Activity in [16] was determined as 9%; in assay [17], 49%; in assay [19], 48%; in assay [20], 39%; in [21] it was 13%; in assay [22], 37%. For the same compound, the figures for the Activity in assay [23] and in assay [24] were 45% and 18%, respectively. Besides, the EC50 in assay [25] stood at 7.8 µM; in assay [26], 24.1 µM; in assay [27] it was 7.3 µM; in assay [28], 20 µM; in assay [29], 11.2 µM.
Turning to `CCCNc1ccc2ncc(-c3ccc4[nH]ncc4c3)n2n1`, the Activity in assay [30] turned out to be 38%; in assay [31], 44%; in assay [32] it was 18%.
